Measurements reported in PubChem BioAssay AID1963862 (Molecular Pharmacology Branch, DTP, NCI, 2024).

Tested on: KRAS patient-derived spheroids with HUVEC/MSC, viability
Assay: Anticancer human tumor 941728-121-R-J1-PDC patient-derived lung adenocarcinoma cell line growth inhibition [KRAS2]
Conditions: for IC50: curve of first compound; for viability, T/C: stronger effect = lower value
Text: Multicellular complex tumor spheroid response to RAS pathway inhibitors in combination with a targeted agents in patient-derived cell lines with oncogenic KRAS variants from multiple cancer types
A high-throughput screen of multi-cell type tumor spheroids was designed to identify active combinations of targeted small molecules and KRAS pathway inhibitors. Complex spheroids include a stromal component modeled by human endothelial cells (HUVEC) and fibroblasts modeled by human mesenchymal stem cells (MSCs). The concentration ranges selected for each drug and investigational agent were based upon clinically achievable concentrations if the clinical Cmax of the agent was known.
Compounds. The drugs and investigational agents: BI-3406 (NSC825286), BAY-293 (NSC824723), batoprotafib (TNO155; NSC825523), sotorasib (AMG 510; NSC818433), MRTX1257 (NSC819558), elimusertib (BAY 1895344; NSC800525), molibresib (GSK525762; NSC774829), temuterkib (LY3214996; NSC803410), venetoclax (NSC766270), alisertib (NSC759677), olaparib (NSC753686), talazoparib (NSC767125), erdafitinib (NSC781556), ipatasertib (NSC767898), cabozantinib (NSC761068), nintedanib (NSC756659), abemaciclib (NSC768073), docetaxel (NSC628503), trametinib (NSC758246), and sapanisertib (NSC764658) were obtained from the National Cancer Institute (NCI) Developmental Therapeutics Program Chemical Repository. The FDA-approved anticancer drug set is available from the Developmental Therapeutics Program. […] The stock solutions were prepared in dimethyl sulfoxide (DMSO, Sigma-Aldrich, St. Louis, MO, cat. D2650) at 800-fold the tested concentration and stored at -70 degrees C prior to their use. All drugs and investigational agents were tested over a range starting from a high concentration at or near the clinical Cmax and decreasing in half-log increments. If the clinical Cmax for an agent had not been determined, the highest concentration tested was 10 microM.
Cell Culture. All cells were maintained in an incubator at 37 degrees C and 5% CO2 with 95% humidity. The PDC lines were cultured according to standard operating procedures established by the NCI PDMR (https://pdmr.cancer.gov/sops/default.htm). Briefly, all PDCs were thawed and cultured in Matrigel-coated flasks prepared with a working solution of 1X Ham's F-12 nutrient mix, without supplementation (Invitrogen, Waltham, MA, cat. 11765054), 100 U/mL penicillin-streptomycin (Invitrogen, cat. 15140122), and 2.5% Matrigel (Corning Inc., Corning, NY, cat. 354248) for the first three passages. All PDCs were cultured in complete DMEM/F-12 media containing advanced DMEM/F-12 (Invitrogen, cat. 12634028), 4.9% defined fetal bovine serum, heat inactivated (HyClone Laboratories Inc., Logan, UT, cat. SH30070.03HI), 389 ng/mL hydrocortisone (Sigma-Aldrich, cat. H4001), 9.7 ng/mL human EGF recombinant protein (Invitrogen, cat. PHG0313), 23.4 microg/mL adenine (Sigma-Aldrich, cat. A2786), 97.3 U/mL penicillin-streptomycin (Invitrogen, cat. 15140122), 1.9 mM L-glutamine (Invitrogen, cat. 25030081), and 9.7 microM Y-27632 dihydrochloride (Tocris Bioscience, Bristol, United Kingdom, cat. 1254). The PDCs were cultured in complete DMEM/F12 media without 9.7 microM Y-27632 dihydrochloride for at least two passages prior to the screen. The established cell line HOP-62 was cultured in RPMI 1640 medium, HEPES (Invitrogen, cat. 22400105) with 10% defined fetal bovine serum (HyClone Laboratories Inc., cat. SH30070.03) and 2 mM L-glutamine (Invitrogen, cat. 25030081). The pooled donor HUVEC were cultured in endothelial cell growth medium 2 (PromoCell, Heidelberg, Germany, cat. C-22011) and the hMSC were cultured in mesenchymal stem cell growth medium 2 (PromoCell, cat. C-28009). For all experiments, HUVEC and hMSC were used at passages </=5, while the malignant cell lines were used at passages </=15. […]

[1] = second compound 0.1 µM, first compound 0.0316 µM
[2] = second compound 0.1 µM, first compound 0.1 µM
[3] = second compound 0.316 µM, first compound 0.0316 µM
[4] = second compound 0.316 µM, first compound 0.1 µM
[5] = second compound 1 µM, first compound 0.0316 µM
[6] = second compound 1 µM, first compound 0.1 µM
[7] = second compound 3.16 µM, first compound 0.0316 µM
[8] = second compound 3.16 µM, first compound 0.1 µM
[9] = second compound 10 µM, first compound 0.0316 µM
[10] = second compound 10 µM, first compound 0.1 µM
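Note: spheroids exposed to agents for seven days before readout.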

Cn1ncnc1[C@H]1c2n[nH]c(=O)c3cc(F)cc(c23)N[C@@H]1c1ccc(F)cc1 + C=CC(=O)N1CCN(c2nc(=O)n(-c3c(C)ccnc3C(C)C)c3nc(-c4c(O)cccc4F)c(F)cc23)C(C)C1
IC50 (second compound 0.1 µM): < 0.000316 µM
IC50 (second compound 0.316 µM): < 0.000316 µM
IC50 (second compound 1 µM): < 0.000316 µM
IC50 (second compound 3.16 µM): < 0.000316 µM
IC50 (second compound 10 µM): < 0.000316 µM
viability, T/C (second compound 0.1 µM, first compound 0.000316 µM): 14.7%
viability, T/C (second compound 0.1 µM, first compound 0.001 µM): 15.4%
viability, T/C (second compound 0.1 µM, first compound 0.00316 µM): 13.9%
viability, T/C (second compound 0.1 µM, first compound 0.01 µM): 13.6%
viability, T/C [1]: 13.5%
viability, T/C [2]: 13.9%
viability, T/C (second compound 0.316 µM, first compound 0.000316 µM): 17.4%
viability, T/C (second compound 0.316 µM, first compound 0.001 µM): 14.9%
viability, T/C (second compound 0.316 µM, first compound 0.00316 µM): 15.3%
viability, T/C (second compound 0.316 µM, first compound 0.01 µM): 14.8%
viability, T/C [3]: 14.1%
viability, T/C [4]: 14.1%
viability, T/C (second compound 1 µM, first compound 0.000316 µM): 16%
viability, T/C (second compound 1 µM, first compound 0.001 µM): 15.5%
viability, T/C (second compound 1 µM, first compound 0.00316 µM): 17.6%
viability, T/C (second compound 1 µM, first compound 0.01 µM): 15.9%
viability, T/C [5]: 15.9%
viability, T/C [6]: 15.2%
viability, T/C (second compound 3.16 µM, first compound 0.000316 µM): 15.8%
viability, T/C (second compound 3.16 µM, first compound 0.001 µM): 18.3%
viability, T/C (second compound 3.16 µM, first compound 0.00316 µM): 15.4%
viability, T/C (second compound 3.16 µM, first compound 0.01 µM): 17.4%
viability, T/C [7]: 13.6%
viability, T/C [8]: 14.9%
viability, T/C (second compound 10 µM, first compound 0.000316 µM): 17.9%
viability, T/C (second compound 10 µM, first compound 0.001 µM): 20.1%
viability, T/C (second compound 10 µM, first compound 0.00316 µM): 17.3%
viability, T/C (second compound 10 µM, first compound 0.01 µM): 17.3%
viability, T/C [9]: 18.1%
viability, T/C [10]: 16.7%

COc1cc2nccc(Oc3ccc(NC(=O)C4(C(=O)Nc5ccc(F)cc5)CC4)cc3)c2cc1OC + CC1OCC2(CCN(c3cnc(Sc4ccnc(N)c4Cl)c(N)n3)CC2)C1N
IC50 (second compound 0.1 µM): < 0.0316 µM
IC50 (second compound 0.316 µM): < 0.0316 µM
IC50 (second compound 1 µM): < 0.0316 µM
IC50 (second compound 3.16 µM): < 0.0316 µM
IC50 (second compound 10 µM): < 0.0316 µM
viability, T/C [1]: 48.9%
viability, T/C [2]: 40%
viability, T/C (second compound 0.1 µM, first compound 0.316 µM): 31.5%
viability, T/C (second compound 0.1 µM, first compound 1 µM): 29.4%
viability, T/C (second compound 0.1 µM, first compound 3.16 µM): 34.2%
viability, T/C (second compound 0.1 µM, first compound 10 µM): 26.9%
viability, T/C [3]: 28.8%
viability, T/C [4]: 26.2%
viability, T/C (second compound 0.316 µM, first compound 0.316 µM): 29%
viability, T/C (second compound 0.316 µM, first compound 1 µM): 27.8%
viability, T/C (second compound 0.316 µM, first compound 3.16 µM): 14.6%
viability, T/C (second compound 0.316 µM, first compound 10 µM): 16.6%
viability, T/C [5]: 25.3%
viability, T/C [6]: 25.9%
viability, T/C (second compound 1 µM, first compound 0.316 µM): 24.1%
viability, T/C (second compound 1 µM, first compound 1 µM): 15.5%
viability, T/C (second compound 1 µM, first compound 3.16 µM): 8.65%
viability, T/C (second compound 1 µM, first compound 10 µM): 7.11%
viability, T/C [7]: 25.3%
viability, T/C [8]: 20.1%
viability, T/C (second compound 3.16 µM, first compound 0.316 µM): 11.7%
viability, T/C (second compound 3.16 µM, first compound 1 µM): 12%
viability, T/C (second compound 3.16 µM, first compound 3.16 µM): 7.91%
viability, T/C (second compound 3.16 µM, first compound 10 µM): 4.69%
viability, T/C [9]: 20.7%
viability, T/C [10]: 14.8%
viability, T/C (second compound 10 µM, first compound 0.316 µM): 12.2%
viability, T/C (second compound 10 µM, first compound 1 µM): 8.99%
viability, T/C (second compound 10 µM, first compound 3.16 µM): 4.63%
viability, T/C (second compound 10 µM, first compound 10 µM): 4.36%
